Target: T1, human leukocyte elastase (Homo sapiens, UniProt P08246)
T1 sequence (P08246 30-267): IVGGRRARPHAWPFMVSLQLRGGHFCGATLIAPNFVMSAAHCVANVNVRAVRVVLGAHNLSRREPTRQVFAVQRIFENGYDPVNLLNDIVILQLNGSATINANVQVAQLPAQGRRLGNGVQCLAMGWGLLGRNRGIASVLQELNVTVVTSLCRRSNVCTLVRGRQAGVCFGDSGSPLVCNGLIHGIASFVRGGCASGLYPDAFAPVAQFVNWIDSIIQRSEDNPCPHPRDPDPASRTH
Experiment: human leukocyte elastase inhibition, progress curves with MeOSuc-Ala-Ala-Pro-Val-pNA
Type: biochemical
Settings: HLE; substrate MeOSuc-Ala-Ala-Pro-Val-pNA; pH 7.8, 25° C.; 410 nM absorbance; read-out: inhibition constant Ki
Procedure: The test compound (inhibitor) is dissolved in DMSO in a vial to produce an inhibitor stock solution which has a concentration in the range of 200-1000 μM. The inhibitor stock solution is diluted (1:4, 1:16 and 1:64) into assay vials (vials 1, 2 and 3 respectively) containing 2.4 mL of buffer solution (50 mM N-[2-hydroxyethyl]piperazine-N'-[2-ethanesulfonic acid]/NaOH, 500 mM NaCl, pH 7.8 at 25° C.) and DMSO is added so that the total volume in each vial is 3.2 mL. 70 μL, 50 μL, 35 μL and 25 μL of inhibitor from assay vial 1 is placed into the first four wells of a 96-well microtiter plate and each well is made up to 90 μL total volume with the addition of a 25% DMSO/buffer solution. The inhibitor from assay vials 2 and 3 is processed in a similar manner and placed in wells 5-12 respectively to afford a total of 12 different inhibitor concentrations. Four wells (wells 13-16) containing 90 μL of the 25% DMSO/buffer solution but no inhibitor are also run simultaneously with the inhibited wells as a control. 150 μL of substrate solution (prepared by the addition of 500 μL of the human leukocyte elastase (HLE) substrate MeOSuc-Ala-Ala-Pro-Val-pNA (18.7 mM in DMSO) to 19.5 mL of buffer solution) is then added simultaneously into each of the 16 wells and the solution in each well was thoroughly mixed.
The 96-well microtiter plate is placed into a Microplate Reader #89815A spectrophotometer and 110 μL of the enzyme solution (prepared as follows: a mixture of 20 mL of buffer solution and 20 mg of bovine serum albumen is gently vortexed in a scintillation vial and 5 μL HLE stock solution (1 mg/mL dissolved in deionized water) is added) is added simultaneously to each of the 16 wells. Each of the solutions in the wells is thoroughly mixed and then the time-dependent absorbance data is collected at an absorbance of 410 nm until the assay is complete. It should be noted that although this assay method can be done manually, it is preferred to perform the assay robotically using a Hewlett Packard MicroAssay System Robot.
A plot of the absorbance versus time data thus obtained affords progress curves the final slope of which is equal to the final steady-state velocities (VF). Using the program ENZFITTER (Elsevier software), the progress curves for the four control assays ([I]=0) are fit by linear regression to yield the enzyme reaction velocity values in the absences of inhibitor (Vo) which are averaged to produce a single fixed value. The inhibition constant Ki (nM) is then obtained from a plot of [formula] which affords a linear plot wherein: [formula] and [S] is the concentration of the substrate and Km is the Michaelis constant.
Table V summarizes the results obtained from the testing of representative compounds of the invention for human leukocyte elastase inhibitory activity.

| SMILES | Ki [µM] |
| --- | --- |
| CC(C)C1NS(=O)(=O)N(CSc2nnnn2-c2ccccc2)C1=O (racemic) [2 (f), 2-(1-phenyl-1H-tetrazol-5-yl-thiomethyl)-4-isopropyl-1,2,5-thizdizolidin-3-one 1,1-dioxide] | 3 |
| CCCC1NS(=O)(=O)N(CSc2nnnn2-c2ccccc2)C1=O (centres unmarked) [1 (f), 2-(1-phenyl-1H-tetrazol-5-yl-thiomethyl)-4-propyl-1,2,5-thiadiazolidin-3-one 1,1-dioxide] | 0.18 |
| CC(C)C1C(=O)N(CSc2nnnn2-c2ccccc2)S(=O)(=O)N1C (centres unmarked) [4 (f), 2-(1-phenyl-1H-tetrazol-5-yl-thiomethyl)-4-isopropyl-5-methyl-1,2,5-thiadiazolidin-3-one 1,1-dioxide] | 0.2 |
| O=C1C2CCCCN2S(=O)(=O)N1CSc1nnnn1-c1ccccc1 (centres unmarked) [18 (f), 2-(1-phenyl-1H-tetrazol-5-yl-thiomethyl)-1,2,5-thiadiazolo [2,3-a]3,3a,4,5,6,7-hexahydropyridine-3-one 1,1-dioxide] | 0.085 |
| O=C1C2CCCN2S(=O)(=O)N1CSc1nnnn1-c1ccccc1 (centres unmarked) [19 (f), 2-(1-phenyl-1H-tetrazol-5-yl-thiomethyl)tetrahydropyrrolo[1,2-b]-1,2,5-thiadiazol-3 (2H)-one 1,1-dioxide] | 0.54 |

Now those with a lower Ki, led by results:

| Ki [µM] | SMILES |
| --- | --- |
| 0.011 | CCCC1C(=O)N(CSc2nnnn2-c2ccccc2)S(=O)(=O)N1CC (centres unmarked) [5 (i), 2-(1-phenyl-1H-tetrazol-5-yl-thiomethyl)-4-propyl-5-ethyl-1,2,5-thiadiazolidin-3-one 1,1-dioxide] |
| 0.0036 | CCCC1C(=O)N(CSc2nnnn2-c2ccccc2)S(=O)(=O)N1C (centres unmarked) [3 (h), 2-(1-phenyl-1H-tetrazol-5-yl-thiomethyl)-4-propyl-5-methyl-1,2,5-thiadiazolidin-3-one 1,1-dioxide] |
| 0.0024 | CC(C)CCC1C(=O)N(COc2cc(C(F)(F)F)nn2-c2ccccc2)S(=O)(=O)N1C (centres unmarked) [6 (j), 2-(1-phenyl-3-trifluoromethyl-pyrazol-5-yloxymethyl)-4-(3-methylbutyl)-5-methyl-1,2,5-thiadiazolidin-3-one 1,1-dioxide] |
